Measured values: patent US11905263B1, “4-nitro-N′-(2-(5-phenyl-1,3,4-oxadiazol-2-ylthio)acetoxy)benzimidamide as an antimicrobial compound” (KING FAISAL UNIVERSITY, priority 2023, dated 2024)

Legend:
Type in all cases: cell-based
Bacillus cereus = assay: Agar plate disc-diffusion, antibacterial, inhibition zone; details: Gram positive
Protocol: (§1) The agar plate disc-diffusion method was applied. […] The discs were then placed onto the surface of agar plates (nutrient agar for bacteria and Sabouraud's dextrose agar for fungi) seeded with the test organism. Each plate contained 15 mL of the agar medium, previously seeded with 0.2 mL of the broth culture of each organism pregrown for 18 hours. The plates were incubated at 37° C. for 48 hours, and 72 hours for fungi. The inhibition zones was measured in mm. Discs impregnated with DMSO were used as a control, and its inhibition zone was subtracted from the tested compound actual inhibition zone.

Escherichia coli = assay: as above; details: Gram negative
Protocol: as §1

Pseudomonas aeruginosa = assay: as above; details: Gram negative
Protocol: as §1

Staphylococcus aureus = assay: as above; details: Gram positive
Protocol: as §1

Aspergillus flavus = assay: Agar plate disc-diffusion, antifungal, inhibition zone; details: fungal
Protocol: as §1

[1] = test system: Chrysosporium keratinophilum; assay: as above; details: fungal
Protocol: as §1

[2] = A = concentration of comp. = 10,000 μL
[3] = B = concentration of comp. = 30,000 μL
[4] = C = concentration of comp. = 50,000 μL

For `N/C(=N\OC(=O)CSc1nnc(-c2ccccc2)o1)c1ccc([N+](=O)[O-])cc1` [Compound 3, 4-nitro-N′-(2-(5-phenyl-1,3,4-oxadiazol-2-ylthio)acetoxy)benzimidamide], the “inhibition zone, Bacillus Cereus” value (Bacillus cereus; [2]) was 20 mm, the “inhibition zone, Bacillus Cereus” value (Bacillus cereus; [3]) was 25 mm and the “inhibition zone, Bacillus Cereus” value (Bacillus cereus; [4]) was 34 mm. For the same compound, the “inhibition zone, Escherichia coli” value (Escherichia coli; [2]) was 27 mm, the “inhibition zone, Escherichia coli” value (Escherichia coli; [3]) was 33 mm and the “inhibition zone, Escherichia coli” value (Escherichia coli; [4]) was 48 mm. The “inhibition zone, Pseudomonas aeruginosa” value (Pseudomonas aeruginosa; [2]) was 19 mm, the “inhibition zone, Pseudomonas aeruginosa” value (Pseudomonas aeruginosa; [3]) was 25 mm and the “inhibition zone, Pseudomonas aeruginosa” value (Pseudomonas aeruginosa; [4]) was 36 mm. The “inhibition zone, Staphylococcus aureus” value (Staphylococcus aureus; [2]) was 19 mm, the “inhibition zone, Staphylococcus aureus” value (Staphylococcus aureus; [3]) was 22 mm and the “inhibition zone, Staphylococcus aureus” value (Staphylococcus aureus; [4]) was 38 mm. For the same compound, the “inhibition zone, Aspergillus flavus” value (Aspergillus flavus; [2]) was 17 mm, the “inhibition zone, Aspergillus flavus” value (Aspergillus flavus; [3]) was 23 mm and the “inhibition zone, Aspergillus flavus” value (Aspergillus flavus; [4]) was 35 mm. The “inhibition zone, Chrysosporium keratinophilum” value [1, 2] was 26 mm, the “inhibition zone, Chrysosporium keratinophilum” value [1, 3] was 28 mm and the “inhibition zone, Chrysosporium keratinophilum” value [1, 4] was 43 mm.
